One test relates to TF-1 cells. Kind of test: TF-1 cell proliferation assay. The test is classed as cell-based, human. On the procedure: To evaluate the biological activities of two representative synthetic peptides containing the 12-mer consensus sequence, peptides ERB1-7 and ERB1-8 were tested for their ability to stimulate proliferation of the EPO-responsive cell line (TF-1).
TF-1 cells were propagated in RPMI 1640 containing 10% BCS and 5 ng/ml GM-CSF. […] Also tested as a negative control was an IL-6 peptide having the sequence […] (SEQ ID NO:87). Peptide concentrations were tested over a 1,000-fold concentration range of 0.02 to 20 μM.

The next test has as its target T1, interleukin-6 (IL-6R) (Homo sapiens, UniProt P08887).
T1 sequence (P08887 20-365 limits assumed): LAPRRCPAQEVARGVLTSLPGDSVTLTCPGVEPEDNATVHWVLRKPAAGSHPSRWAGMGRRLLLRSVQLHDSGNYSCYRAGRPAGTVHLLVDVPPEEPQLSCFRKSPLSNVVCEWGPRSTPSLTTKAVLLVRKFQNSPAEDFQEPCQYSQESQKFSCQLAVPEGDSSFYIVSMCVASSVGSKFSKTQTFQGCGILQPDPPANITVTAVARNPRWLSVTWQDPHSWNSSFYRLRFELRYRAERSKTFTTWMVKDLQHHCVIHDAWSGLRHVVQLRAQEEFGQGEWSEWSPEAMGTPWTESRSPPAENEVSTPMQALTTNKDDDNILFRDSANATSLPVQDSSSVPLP
Kind of test: phage binding control, IL-6R extracellular domain. Particulars: results not shown.

The test system of test [1] is extracellular domains of the receptors for tumor necrosis factor (TNFR). Kind of test: phage binding control, TNFR extracellular domain. To be noted: results not shown.
The target in test [2] is T2, chimeric Ig-EPOR protein (Homo sapiens, UniProt P19235).
T2 construct: a fusion protein having domains corresponding to murine IgG1 and the extracellular domain (ECD) of the human EPOR; made in house; secreted into the medium
Kind of test: phage ELISA, relative affinities of binding clones for Ig-EPOR. Particulars: optical density per phage at 50% ERB1 maximum response × 1×10^8; ERB1 = standard. Here is the method: To better characterize the phage isolates having binding specificity for the EPOR, we compared the relative affinities of the binding clones presented in FIG. 4, using a phage ELISA procedure. Phage stocks of the binding clones were titered in triplicate to accurately determine the concentration of pfu/ml for each lysate. Different isolates were then assayed by ELISA using normalized phage concentrations so that all clones were tested using equivalent numbers of phage. Optical densities in the ELISA corresponding to the equivalent of a 50% maximum response in the ERB1 trial were next determined for each of the different phage isolates. […] The normalized relative affinity (“Rel. Aff.”) for each clone is shown to the right of the clone's peptide sequence in FIG. 4.
On the technique in general: ELISA stands for enzyme-linked immunosorbent assay.

Another test addresses T3, chimeric Ig-EPOR probe (Homo sapiens, UniProt P19235).
T3 construct: a fusion protein having domains corresponding to murine IgG1 and the extracellular domain (ECD) of the human EPOR; made in house; secreted into the medium
Kind of test: EPOR-specific magnetic bead phage ELISA. The test is classed as binding. To be noted: anti-M13 detection. Here is the method:
A magnetic bead ELISA protocol was used to verify that the ERB1 phage clone bound to the chimeric Ig-EPOR probe by specific interactions. The chimeric Ig-EPOR probe was bound to magnetic beads displaying rat anti-murine IgG1, substantially as described above. Samples (100 μl) of 1:2 serial dilutions (PBS and 1% BSA) of a phage lysate were combined with the beads, and the phage allowed to bind the immobilized probe for 1 hr at room temperature. Phage used in this procedure were ERB1 and two negative control phage: HPKF, a clone that binds specifically to a commercially obtained anti-IL-8 mAb, and IL6-B26, a clone that binds specifically to a human IL-6 receptor. After removing unbound phage by washing four times with 200 μl aliquots of TBST (25 mM TrisHCl, pH 7.2, 0.15 M NaCl, 0.1% TWEEN® 20), an HRP-conjugated anti-M13 detection antibody (Pharmacia) diluted 1:5,000 in PBS was added. After incubating (1 hr at room temperature), excess detection antibody was removed by washing and 10 μl for each of the washed bead complexes was transferred to microtiter wells (FALCON® 3912, MICROTEST III, Beckton Dickinson, Oxnard, Calif.) that served as reaction vessels. Each well was developed using the TMB peroxidase substrate and the extent of the peroxidase reaction measured spectrophotometrically, as described in Example 4.

The nature of test [3]: Biacore analysis of binding kinetics of Ig-EPOR. Particulars: known affinity values 0.1-1.1×10^−9 k (Karlsson et al.). The text has this: Contaminating bands and degradation products on the gel were minimal. […] The Ig-EPOR protein easily was recoverable in microgram amounts using the procedures described above.
(In general: SPR reads the build-up and loss of mass on a sensor chip optically.)

Test [4] has as its target T4, chimeric Ig-EPOR protein (human; murine, UniProt P19235 25-250).
T4 construct: extracellular domain; Secreted from COS-7 cells transfected with pcDNA3-IgG1-EPOR; major species about 59 kDa; also called IgG-EPOR; chimeric receptor; not shown: hinge region, CH2 and CH3 domains of the murine IgG1 heavy chain
T4 sequence (looked up): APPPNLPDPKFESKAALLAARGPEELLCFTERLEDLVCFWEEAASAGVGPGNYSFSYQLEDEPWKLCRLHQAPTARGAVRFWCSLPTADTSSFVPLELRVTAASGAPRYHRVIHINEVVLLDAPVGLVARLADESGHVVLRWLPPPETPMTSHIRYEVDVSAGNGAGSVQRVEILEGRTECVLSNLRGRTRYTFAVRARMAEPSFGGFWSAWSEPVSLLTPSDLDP
Kind of test: peptide inhibition ELISA: Ig-EPOR binding to EPO-coated plates. The text has this:
(§1) Thus, the consensus 12-mer peptide sequence given by SEQ ID NO:12 likely was necessary but not sufficient to create synthetic peptides having high affinity for the EPOR.

The target in test [5] is T4, chimeric Ig-EPOR protein. Put plainly: peptide inhibition ELISA (Ig-EPOR binding to EPO-coated plates).
Description: as §1

In test [6] the target is T4, chimeric Ig-EPOR protein. Kind of test: control in the peptide inhibition ELISA (FIGS. 6 and 7). The source says:
Synthetic peptides having the sequences […]-[…] (SEQ ID NO:81), and […]-[…] (SEQ ID NO:82) were synthesized in the cyclic (disulfide-bonded) form using standard procedures (Peninsula Laboratories, Belmont, Calif.).

As usually defined, the IC50 is the concentration needed to halve the response being measured. The low end stands for greater potency in that assay, the high end for weaker potency in that assay.

Positions of bridges follow the written chain, without caps; N, C: chain ends. No end group written: not given here.

T3 sequence (P01868 98-324 partner limits assumed, one chain of several): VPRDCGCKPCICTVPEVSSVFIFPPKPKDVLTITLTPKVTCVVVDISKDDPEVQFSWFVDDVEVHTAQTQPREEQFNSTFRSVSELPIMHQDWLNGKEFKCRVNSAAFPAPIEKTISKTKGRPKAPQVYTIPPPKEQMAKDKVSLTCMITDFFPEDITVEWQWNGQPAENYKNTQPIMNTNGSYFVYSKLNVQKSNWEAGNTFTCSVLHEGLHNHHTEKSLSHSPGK
T2 sequence (P01868 98-324 partner limits assumed, one chain of several): as above

Consider “EPO: recombinant human EPO (R & D Systems)”, for which the “half maximal response (ED50), TF-1 proliferation” value with TF-1 cells (three days culture) was in the range of 0.05 to 0.1 unit/ml.

Regarding “DFDVCRRGWVGHCKDWLSDEYASNPSYPVPHSYYLNPP [ERB1]”, the “binding to extracellular domain of IL-6R” value at interleukin-6 (IL-6R) is recorded as “did not bind”. Also, the “binding to extracellular domain of TNFR” value in [1] is listed as “did not bind”. The “normalized relative affinity (Rel. Aff.)” value on chimeric Ig-EPOR protein [2] is given as 1.0. Moreover, the “binding to the Ig-EPOR probe” value on chimeric Ig-EPOR probe was “bound specifically”. “Ig-EPOR: chimeric protein: ligand binding domain of human EPOR and hinge, CH2 and CH3 domains of murine IgG1”: the binding kinetics result in test [3] is given as “in good agreement with known affinity values”. As to “GGAFCEAVGCGPDRNFYGG [IL-6 peptide, reference compound]”, the “stimulation of TF-1 cell proliferation” value with TF-1 cells (any tested concentration up to 20 μM) was “did not stimulate TF-1 cell proliferation”. EGCRRGWVGQCKAWFN (disulfide 3-11 (inferred), N-terminal truncation of ERB1-7) [16-mer peptide 7N-2]: the IC50 with chimeric Ig-EPOR protein [4] is roughly 3700 nM.

For the molecule CRRGWVGQCKAWFN (not fully specified (bridges); also: synthesized as (cyclic form there), N-terminal truncation of ERB1-7) [14-mer peptide 7N-4], the binding result with chimeric Ig-EPOR protein [5] is listed as “no binding”.

In turn, REGCRRGWVGQCKAWFN (disulfide 4-12 (inferred), N-terminal truncation of ERB1-7) [17-mer peptide 7N-1] displayed a concentration for half-maximal inhibition (IC50) with chimeric Ig-EPOR protein [4] of 91 nM. For GGAFCEAVGCGPDRNFYGG (also called irrelevant IL-6 peptide) [IL-6 peptide], in the test with chimeric Ig-EPOR protein [6], the binding result was “no binding”.

For GCRRGWVGQCKAWFN (not fully specified (bridges); also: synthesized as (cyclic form there), N-terminal truncation of ERB1-7) [15-mer peptide 7N-3], the binding result in the test with chimeric Ig-EPOR protein [5] is reported as “no binding”.

The record behind these values is patent US6642353B1, “Peptide ligands for the erythropoietin receptor” (Chugai Seiyaku Kabushiki Kaisha, priority 2000, dated 2003).
